Data on 27 compounds can be found in ChEMBL document CHEMBL4373654, “Discovery of (aza)indole derivatives as novel respiratory syncytial virus fusion inhibitors” (Medchemcomm, 2019).

The term EC50 denotes the concentration needed to bring the measured effect to its halfway point. Usually CC50 stands for the concentration giving 50% cytotoxicity. A word on the half-life: it is the time needed for the level to fall by half in the phase considered. Low values mean rapid decline, high ones slow decline. As usually defined, the bioavailability is dose-corrected exposure relative to a reference, in per cent. Lower therefore signals little systemic uptake. As a reminder, the solubility is the concentration that dissolves in the medium under given conditions. For orientation: inhibition means the percentage by which the read-out fell short of the control.

≈ marks a conversion by molar mass, not a printed value. Calls of active or inactive are those of the source. Bounds are passed on as bounds.

In series [1] the test system is Respiratory syncytial virus. Description: Antiviral activity against Respiratory syncytial virus Long infected in HEp-2 cells assessed as reduction in virus induced cytopathic effect measured after 6 days by MTT assay. Type of series: functional, organism-based. The following applies: human respiratory syncytial virus, HEp-2, 144 h. (In general: Damage to the host cells serves as the signal in cytopathic effect assays.)

Series [2] can be described thus: Cytotoxicity against human Hep2 cells assessed as reduction in cell viability after 6 days by MTT assay. Format: cell-based. The following applies: HEp-2 cells. For orientation: Tetrazolium dyes change colour on reduction, which living cells bring about.
Series [3] is described as follows: Therapeutic index, ratio of CC50 for cytotoxicity against human Hep2 cells to EC50 for antiviral activity against Respiratory syncytial virus Long infected in HEp-2 cells. Format: toxicity, cell-based. To be noted: read-out: Ratio CC50/EC50.
The nature of series [4]: AUC in ICR mouse at 10 mg/kg, po administered as single dose. Format: ADME, organism-based. The following applies: in vivo.
Series [5] in a line: Volume of distribution at steady state in ICR mouse at 2 mg/kg, iv administered as single dose. Type of series: ADME, organism-based. To be noted: in vivo, read-out: Vdss.
Series [6] can be described thus: Half life in ICR mouse at 10 mg/kg, po administered as single dose. Format: ADME, organism-based. The following applies: in vivo.
A short description of series [7]: Clearance in ICR mouse at 2 mg/kg, iv or 10 mg/kg, po administered as single dose. Format: ADME, organism-based. The following applies: in vivo.
The nature of series [8]: Oral bioavailability in ICR mouse at 10 mg/kg administered as single dose. The following applies: in vivo. Type of series: ADME, organism-based.
A short description of series [9]: Volume of distribution at steady state in ICR mouse at 5 mg/kg, iv administered as single dose. Format: ADME, organism-based. To be noted: in vivo, read-out: Vdss.
A short description of series [10]: Solubility of compound by LYSA assay. Format: physicochemical.
Series [11] is described as follows: AUC in ICR mouse at 25 mg/kg, po administered as single dose. Format: ADME, organism-based. The following applies: in vivo.
Series [12] is described as follows: Clearance in ICR mouse at 5 mg/kg, iv or 25 mg/kg, po administered as single dose. Format: ADME, organism-based. To be noted: in vivo.
A short description of series [13]: Half life in ICR mouse at 25 mg/kg, po administered as single dose. Type of series: ADME, organism-based. The following applies: in vivo.
For series [14], the system named is Respiratory syncytial virus. Put plainly: Inhibition of Respiratory syncytial virus Long F protein expressed in Flp-In T-REx 293 cells assessed as cell-cell fusion at 1 nM after 3 days by microscopic analysis. Type of series: cell-based.
In series [15] the test system is Respiratory syncytial virus. Put plainly: Inhibition of Respiratory syncytial virus Long F protein expressed in Flp-In T-REx 293 cells assessed as reduction in syncytia formation at 10 nM after 3 days by microscopic analysis relative to control. Format: cell-based.
Series [16] is described as follows: Oral bioavailability in ICR mouse at 25 mg/kg administered as single dose. Type of series: ADME, organism-based. To be noted: in vivo.
Series [17] deals with Respiratory syncytial virus. Put plainly: Inhibition of Respiratory syncytial virus Long F protein expressed in Flp-In T-REx 293 cells assessed as syncytia formation at 1 nM after 3 days by microscopic analysis. Format: cell-based.

For `CS(=O)(=O)CCn1c(CN2C(=O)C3(CC3)c3ccncc32)cc2c(Cl)cccc21`, in [1], the EC50 was found to be 1670 nM. In addition, in series [2], the CC50 at 144 h is greater than 100000 nM. For the same compound, the selectivity ratio in series [3] was greater than 60.

Consider `CS(=O)(=O)CCn1c(CN2C(=O)C3(CC3)c3cnccc32)cc2cc(Cl)ccc21`, for which the EC50 in series [1] stood at 200 nM. In addition, the 50% cytotoxic concentration (CC50) at 144 h in series [2] amounted to 96800 nM. Further, in series [3], the selectivity ratio turned out to be 484.

As for `CS(=O)(=O)CCn1c(CN2C(=O)C3(CC3)c3ccncc32)cc2c(Br)cccc21`, in series [1], the 50% effective concentration (EC50) was determined as 14 nM. Further, the CC50 at 144 h in [2] amounted to 49900 nM. Further, the selectivity ratio in [3] was determined as 3560.

As for `CS(=O)(=O)CCn1c(CN2C(=O)C3(CC3)c3ccncc32)cc2cccc(Cl)c21`, the concentration for a half-maximal effect (EC50) in series [1] was found to be 160 nM. For the same compound, in series [2], the half-maximal cytotoxic concentration (CC50) at 144 h stood at 86900 nM. The selectivity ratio in series [3] was determined as 543.

Regarding `CCS(=O)(=O)CCn1c(CN2C(=O)C3(CC3)c3ccncc32)cc2cc(Cl)ccc21`, in series [1], the EC50 amounted to 8 nM. For the same compound, the CC50 at 144 h in [2] was greater than 100000 nM. Further, the selectivity ratio in series [3] is greater than 12500.

As for `CCc1cccc2c1cc(CN1C(=O)C3(CC3)c3ccncc31)n2CCS(C)(=O)=O`, the EC50 in series [1] stood at 220 nM. Moreover, the CC50 at 144 h in series [2] came out at 86800 nM. Also, the selectivity ratio in series [3] came out at 395.

With `CS(=O)(=O)CCn1c(CN2C(=O)C3(CC3)c3ccncc32)cc2c(C(F)(F)F)cccc21`, in series [1], the EC50 was 560 nM. For the same compound, the CC50 at 144 h in series [2] is greater than 100000 nM. In [3], the selectivity ratio was greater than 179.

With `CS(=O)(=O)CCn1c(CN2C(=O)C3(CC3)c3cccnc32)cc2cc(Cl)ccc21`, in series [1], the EC50 is 170 nM. Moreover, the CC50 at 144 h in series [2] is greater than 100000 nM. Also, in series [3], the selectivity ratio is greater than 588.

Turning to `CS(=O)(=O)CCCCn1c(CN2C(=O)C3(CC3)c3ccncc32)cc2cc(Cl)ccc21`, the concentration giving a half-maximal response (EC50) in [1] was found to be 6 nM. For the same compound, in series [2], the CC50 at 144 h was greater than 100000 nM. The selectivity ratio in [3] is greater than 16700.

With `CS(=N)(=O)CCn1c(CN2C(=O)C3(CC3)c3ccncc32)cc2cc(Cl)ccc21` (configuration not stated), the EC50 in series [1] was 7 nM. For the same compound, in series [2], the CC50 at 144 h came to 78300 nM. The selectivity ratio in [3] was found to be 11200.

In turn, `CS(=O)(=O)CCc1c(Cn2c(=O)n(C3CC3)c3ccncc32)nc2cc(Cl)ccn12` displayed an AUC in series [4] of 315 µg/L/h. Moreover, the Vd in series [5] stood at 1.29 L/kg. Also, the half-life in series [6] was 1.73 h. This compound registered a clearance in series [7] of 93.3 mL/min/kg. This compound also gave a bioavailability in series [8] of 16.9%.

For the compound `CS(=O)(=O)CCn1c(CN2C(=O)C3(CC3)c3ccncc32)cc2c(F)cccc21`, the half-maximal effective concentration (EC50) in [1] was determined as 190 nM. The CC50 at 144 h in [2] is greater than 100000 nM. Besides, the selectivity ratio in series [3] was greater than 526.

Turning to `CS(=O)(=O)CCn1c(CN2C(=O)C3(CC3)c3ccncc32)cc2ccccc21`, the 50% effective concentration (EC50) in series [1] turned out to be 220 nM. The half-maximal cytotoxic concentration (CC50) at 144 h in series [2] was 77500 nM. Moreover, the selectivity ratio in [3] came out at 352.

Consider `C[S+]([O-])CCCn1c(CN2C(=O)C3(CC3)c3ccncc32)cc2cc(Cl)ccc21` (configuration not stated), for which, in [1], the EC50 was determined as 9 nM. In addition, the cytotoxic concentration (CC50) at 144 h in series [2] is 92100 nM. In [3], the selectivity ratio is 10200.

For the compound `O=C1N(Cc2cc3cc(Cl)ccc3n2[C@H]2CCS(=O)(=O)C2)c2cnccc2C12CC2`, the EC50 in series [1] stood at 9 nM. Moreover, in [2], the CC50 at 144 h was 42500 nM. Moreover, the selectivity ratio in series [3] was determined as 4720.

As for `CS(=N)(=O)CCCn1c(CN2C(=O)C3(CC3)c3ccncc32)cc2cc(Cl)ccc21` (configuration not stated), in series [1], the 50% effective concentration (EC50) is 6 nM. Further, the CC50 at 144 h in series [2] came out at 68300 nM. The selectivity ratio in series [3] stood at 11400.

As for `CS(=O)(=O)CCn1c(CN2C(=O)C3(CC3)c3ccncc32)cc2cc(Cl)ccc21`, in series [9], the Vd was found to be 1.38 L/kg. Moreover, in series [10], the solubility came to 17 µg/mL (≈ 39.5 µM). The AUC in series [11] was 1550 µg/L/h. For the same compound, the clearance in series [12] was 54.2 mL/min/kg. The half-maximal effective concentration (EC50) in series [1] was found to be 18 nM. For the same compound, the CC50 at 144 h in series [2] amounted to 67400 nM. The selectivity ratio in series [3] was determined as 3740. In addition, the half-life in series [13] was 0.64 h.

On to `CS(=O)(=O)CCn1c(CN2C(=O)C3(CC3)c3ccncc32)cc2cc(Cl)cnc21`, for which the Vd in series [9] was found to be 0.845 L/kg. Moreover, the concentration in solution in [10] (solubility) came to 5 µg/mL (≈ 11.6 µM). In series [11], this compound returned an AUC of 10200 µg/L/h. Besides, the clearance in [12] is 23.7 mL/min/kg. Moreover, the concentration giving a half-maximal response (EC50) in series [1] was determined as 26 nM. Also, the CC50 at 144 h in series [2] amounted to 41700 nM. In addition, the selectivity ratio in series [3] was determined as 1600. In series [13], the half-life is 0.7 h.

As for `CCS(=O)(=O)CCCn1c(CN2C(=O)C3(CC3)c3ccncc32)cc2cc(Cl)ccc21`, in [1], the EC50 is 3 nM. In series [2], the CC50 at 144 h was 51200 nM. In series [3], the selectivity ratio came to 17100.

For `CS(=O)(=O)CCn1c(CN2C(=O)C3(CC3)c3ccncc32)cc2c(C#N)cccc21`, in series [1], the EC50 was 940 nM. Further, in series [2], the CC50 at 144 h was greater than 100000 nM. The selectivity ratio in [3] is greater than 106.

With `CS(=O)(=O)CCn1c(CN2C(=O)C3(CC3)c3ccncc32)cc2nc(Cl)ccc21`, the EC50 in [1] is 63 nM. For the same compound, the CC50 at 144 h in series [2] came out at 74500 nM. For the same compound, the selectivity ratio in [3] was 1180.

As to `CS(=O)(=O)CCCn1c(CN2C(=O)C3(CC3)c3ccncc32)cc2cc(Cl)ccc21`, the EC50 in series [1] amounted to 3 nM. The half-maximal cytotoxic concentration (CC50) at 144 h in series [2] was 38600 nM. Moreover, the selectivity ratio in series [3] is 12900.

For the compound `CS(=O)(=O)CCn1c(CN2C(=O)C3(CC3)c3ccncc32)cc2ccc(Cl)cc21`, in [1], the EC50 worked out at 4830 nM. Besides, the CC50 at 144 h in series [2] turned out to be 59700 nM. In addition, the selectivity ratio in series [3] amounted to 12.

Turning to `Cc1cccc2c1cc(CN1C(=O)C3(CC3)c3ccncc31)n2CCS(C)(=O)=O`, in series [1], the EC50 turned out to be 9 nM. The CC50 at 144 h in series [2] turned out to be 61600 nM. Further, the selectivity ratio in series [3] is 6840.

In the case of `O=C1N(Cc2cc3cc(Cl)ccc3n2[C@@H]2CCS(=O)(=O)C2)c2cnccc2C12CC2`, the Vd in [9] was 2.35 L/kg. Besides, in series [10], the solubility was 2 µg/mL (≈ 4.53 µM). In addition, the inhibition result in [14] and in [17] was “inactive” in each case. Moreover, in series [11], the AUC is 3360 µg/L/h. Further, the clearance in [12] is 30.2 mL/min/kg. In addition, the inhibition in series [15] was found to be 100%. In addition, the EC50 in series [1] was found to be 2 nM. Further, the cytotoxic concentration (CC50) at 144 h in series [2] is 37100 nM. Further, the selectivity ratio in [3] was 18600. Moreover, in series [16], the bioavailability stood at 24.5%. Also, the half-life in series [13] was 3.04 h.

As for `COc1cccc2c1cc(CN1C(=O)C3(CC3)c3ccncc31)n2CCS(C)(=O)=O`, the concentration for a half-maximal effect (EC50) in series [1] turned out to be 74 nM. Besides, the CC50 at 144 h in [2] was greater than 100000 nM. Further, the selectivity ratio in [3] is greater than 1350.

As to `CS(=O)(=O)CCn1c(CN2C(=O)C3(CC3)c3ccncc32)cc2cc(Cl)ncc21`, the 50% effective concentration (EC50) in series [1] came to 330 nM. Further, in series [2], the cytotoxic concentration (CC50) at 144 h is 98900 nM. Moreover, the selectivity ratio in [3] is 300.
